In ChEMBL document CHEMBL1201862, “PubChem BioAssay data set” (2004):
Calls of active or inactive are those of the source.

Columns and labels:
[1] = molecular target: Intestinal-type alkaline phosphatase (Mus musculus, UniProt P24822); assay: PubChem AID 488874; type: functional
[2] = molecular target: T1, Intestinal-type alkaline phosphatase (Homo sapiens, UniProt P09923); assay: inhibition of human intestinal alkaline phosphatase – biochemical, luminescent, uHTS hits, set 2, dose response (AID 488793); type: functional
T1 sequence (P09923 whole entry): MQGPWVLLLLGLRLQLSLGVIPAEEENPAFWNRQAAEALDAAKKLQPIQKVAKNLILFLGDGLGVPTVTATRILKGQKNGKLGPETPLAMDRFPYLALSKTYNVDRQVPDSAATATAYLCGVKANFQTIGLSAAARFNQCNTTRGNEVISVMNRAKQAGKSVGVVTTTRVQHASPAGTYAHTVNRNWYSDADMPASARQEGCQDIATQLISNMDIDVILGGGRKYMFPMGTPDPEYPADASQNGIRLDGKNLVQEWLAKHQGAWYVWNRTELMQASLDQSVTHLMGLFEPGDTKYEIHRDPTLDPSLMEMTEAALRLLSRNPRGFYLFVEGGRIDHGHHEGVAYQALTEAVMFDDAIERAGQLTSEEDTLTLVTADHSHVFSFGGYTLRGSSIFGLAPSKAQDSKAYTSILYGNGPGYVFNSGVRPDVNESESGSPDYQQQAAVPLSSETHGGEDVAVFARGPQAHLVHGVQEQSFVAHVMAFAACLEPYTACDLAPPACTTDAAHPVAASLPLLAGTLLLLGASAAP

[3] = viability loss in HeLa cells – cytotoxicity control for MgcRacGAP inhibitor project, dose response (AID 624300); type: functional
[4] = molecular target: T2, Alkaline phosphatase, tissue-nonspecific isozyme (Homo sapiens, UniProt P05186); assay: inhibition of tissue-nonspecific alkaline phosphatase – biochemical, dose response (AID 488882); type: functional
T2 sequence (P05186 whole entry): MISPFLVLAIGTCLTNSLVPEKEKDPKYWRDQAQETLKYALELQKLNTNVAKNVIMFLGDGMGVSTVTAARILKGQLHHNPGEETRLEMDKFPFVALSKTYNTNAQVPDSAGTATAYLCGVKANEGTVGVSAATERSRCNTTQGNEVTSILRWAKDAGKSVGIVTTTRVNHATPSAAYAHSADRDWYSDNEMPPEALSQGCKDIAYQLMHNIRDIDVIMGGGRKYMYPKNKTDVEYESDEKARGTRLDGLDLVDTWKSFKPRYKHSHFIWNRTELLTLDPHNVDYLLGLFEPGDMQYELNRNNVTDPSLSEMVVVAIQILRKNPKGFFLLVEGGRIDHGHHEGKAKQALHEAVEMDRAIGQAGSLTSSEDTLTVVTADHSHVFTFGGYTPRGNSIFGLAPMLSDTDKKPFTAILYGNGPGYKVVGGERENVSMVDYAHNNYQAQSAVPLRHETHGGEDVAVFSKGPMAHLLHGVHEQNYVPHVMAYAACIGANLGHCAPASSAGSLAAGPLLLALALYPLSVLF

[5] = molecular target: T1, Intestinal-type alkaline phosphatase; assay: Dose Response confirmation of uHTS hits from a small molecule inhibitors of human intestinal alkaline phosphatase via a luminescent assay. [Related pubchem assays (depositor defined):AID2544, AID2574]; type: functional
[6] = molecular target: T3, Rac GTPase-activating protein 1 (Homo sapiens, UniProt Q9H0H5); assay: blockers of MgcRacGAP-driven Rac1 GTP hydrolysis – biochemical, ADP Hunter fluorescence, primary and confirmatory, confirmation (AID 624330); type: functional
T3 sequence (Q9H0H5 whole entry): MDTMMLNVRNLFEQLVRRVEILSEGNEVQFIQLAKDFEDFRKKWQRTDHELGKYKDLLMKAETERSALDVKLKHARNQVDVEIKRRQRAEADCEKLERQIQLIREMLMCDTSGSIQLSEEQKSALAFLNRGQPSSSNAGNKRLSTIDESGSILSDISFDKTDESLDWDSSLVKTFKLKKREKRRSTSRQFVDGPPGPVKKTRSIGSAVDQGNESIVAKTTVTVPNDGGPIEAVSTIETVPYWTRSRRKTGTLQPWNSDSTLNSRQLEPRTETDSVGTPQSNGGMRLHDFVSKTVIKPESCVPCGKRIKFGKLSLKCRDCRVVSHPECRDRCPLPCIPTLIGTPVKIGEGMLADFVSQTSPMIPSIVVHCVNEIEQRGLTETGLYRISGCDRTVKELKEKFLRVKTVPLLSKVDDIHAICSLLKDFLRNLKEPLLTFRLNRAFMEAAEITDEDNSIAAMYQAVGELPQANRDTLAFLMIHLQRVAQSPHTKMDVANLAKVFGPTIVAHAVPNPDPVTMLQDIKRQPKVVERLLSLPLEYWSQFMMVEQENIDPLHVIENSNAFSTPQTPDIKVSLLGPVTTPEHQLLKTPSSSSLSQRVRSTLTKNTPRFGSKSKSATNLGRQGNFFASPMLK

[7] = molecular target: Nuclear receptor subfamily 0 group B member 1 (Homo sapiens, UniProt P51843); assay: Luminescence-based cell-based high throughput dose response assay for inhibitors of the orphan nuclear receptor subfamily 0, group B, member 1 (DAX1; NR0B1). [Related pubchem assays (depositor defined):AID504766, AID504790]; type: functional
Sequence of Nuclear receptor subfamily 0 group B member 1 (P51843 whole entry): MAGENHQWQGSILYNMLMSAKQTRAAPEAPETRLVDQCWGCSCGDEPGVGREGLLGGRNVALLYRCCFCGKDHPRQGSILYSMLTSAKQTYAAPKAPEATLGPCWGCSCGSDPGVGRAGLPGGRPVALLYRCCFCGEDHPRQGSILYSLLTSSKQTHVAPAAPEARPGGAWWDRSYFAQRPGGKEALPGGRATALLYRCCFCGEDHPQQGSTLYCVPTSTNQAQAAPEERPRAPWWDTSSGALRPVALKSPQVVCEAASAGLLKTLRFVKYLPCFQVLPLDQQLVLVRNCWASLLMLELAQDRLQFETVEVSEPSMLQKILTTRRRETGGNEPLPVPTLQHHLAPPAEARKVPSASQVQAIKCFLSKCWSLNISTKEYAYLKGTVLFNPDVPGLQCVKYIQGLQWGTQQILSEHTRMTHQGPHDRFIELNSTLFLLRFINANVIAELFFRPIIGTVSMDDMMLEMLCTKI

HEK293 = assay: cells; type: functional, cell-based; details: Homo sapiens
[8] = molecular target: Lysine-specific demethylase 4C (Homo sapiens, UniProt Q9H3R0); assay: inhibition of JMJD2C H3K9me3 demethylation – biochemical, DELFIA europium, cherry-picked samples, dose response (AID 488835); type: functional
Sequence of Lysine-specific demethylase 4C (Q9H3R0 whole entry): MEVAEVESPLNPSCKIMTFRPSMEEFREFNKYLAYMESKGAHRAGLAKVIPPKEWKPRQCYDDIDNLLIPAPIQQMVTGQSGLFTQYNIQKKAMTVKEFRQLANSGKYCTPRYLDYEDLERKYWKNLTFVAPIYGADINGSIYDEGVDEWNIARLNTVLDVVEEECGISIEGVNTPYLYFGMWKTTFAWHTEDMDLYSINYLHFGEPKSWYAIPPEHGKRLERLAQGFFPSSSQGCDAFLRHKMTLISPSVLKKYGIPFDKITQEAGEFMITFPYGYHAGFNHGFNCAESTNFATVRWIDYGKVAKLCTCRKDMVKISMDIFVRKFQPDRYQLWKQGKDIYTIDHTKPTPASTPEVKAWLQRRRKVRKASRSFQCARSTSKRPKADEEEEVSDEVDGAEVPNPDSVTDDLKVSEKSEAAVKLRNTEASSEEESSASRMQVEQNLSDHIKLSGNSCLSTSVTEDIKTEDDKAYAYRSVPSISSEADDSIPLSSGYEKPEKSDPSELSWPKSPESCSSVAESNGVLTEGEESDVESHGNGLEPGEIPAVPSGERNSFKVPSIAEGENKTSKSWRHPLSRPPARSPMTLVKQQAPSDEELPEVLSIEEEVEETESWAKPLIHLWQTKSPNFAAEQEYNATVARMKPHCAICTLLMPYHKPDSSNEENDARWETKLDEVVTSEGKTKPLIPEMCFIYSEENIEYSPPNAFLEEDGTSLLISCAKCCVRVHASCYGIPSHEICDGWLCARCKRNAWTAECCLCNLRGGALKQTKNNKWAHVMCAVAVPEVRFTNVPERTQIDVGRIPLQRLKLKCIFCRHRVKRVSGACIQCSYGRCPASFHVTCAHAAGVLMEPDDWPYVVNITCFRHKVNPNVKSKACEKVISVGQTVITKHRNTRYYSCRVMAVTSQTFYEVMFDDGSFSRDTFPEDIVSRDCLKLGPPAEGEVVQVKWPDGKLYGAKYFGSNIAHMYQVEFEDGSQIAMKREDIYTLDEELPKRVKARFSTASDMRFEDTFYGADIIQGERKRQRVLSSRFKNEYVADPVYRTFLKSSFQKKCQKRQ

[9] = molecular target: T4, Corticotropin-releasing factor receptor 2/Corticotropin-releasing factor-binding protein (Homo sapiens, UniProt P24387+Q13324); assay: activators of CRF receptor 2 with binding protein – uHTS hits, confirmation (AID 602473); type: functional; details: read-out: EC50_Mean
T4 sequence (Q13324 whole entry): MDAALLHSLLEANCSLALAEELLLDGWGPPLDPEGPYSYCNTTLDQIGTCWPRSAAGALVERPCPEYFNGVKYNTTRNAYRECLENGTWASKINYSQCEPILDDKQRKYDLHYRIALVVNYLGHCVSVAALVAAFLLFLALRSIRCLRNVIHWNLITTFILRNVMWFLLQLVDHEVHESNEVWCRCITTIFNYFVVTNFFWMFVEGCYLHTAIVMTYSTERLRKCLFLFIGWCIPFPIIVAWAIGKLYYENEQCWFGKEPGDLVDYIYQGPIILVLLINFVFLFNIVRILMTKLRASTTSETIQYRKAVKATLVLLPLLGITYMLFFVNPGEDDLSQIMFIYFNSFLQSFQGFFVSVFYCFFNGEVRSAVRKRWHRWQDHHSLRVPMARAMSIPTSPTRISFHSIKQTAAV
T4 sequence (P24387 whole entry): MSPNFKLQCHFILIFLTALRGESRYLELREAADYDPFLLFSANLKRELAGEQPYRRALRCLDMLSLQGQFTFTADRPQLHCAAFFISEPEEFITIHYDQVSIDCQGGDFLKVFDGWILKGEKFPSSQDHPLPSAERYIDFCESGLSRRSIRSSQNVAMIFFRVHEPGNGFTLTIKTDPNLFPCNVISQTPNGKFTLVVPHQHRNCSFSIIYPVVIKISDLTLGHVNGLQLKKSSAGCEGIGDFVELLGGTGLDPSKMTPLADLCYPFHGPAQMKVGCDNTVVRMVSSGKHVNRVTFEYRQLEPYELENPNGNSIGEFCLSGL

[10] = molecular target: T5, Tyrosine-protein phosphatase non-receptor type 7 (Homo sapiens, UniProt P35236); type: functional
T5 sequence (P35236 whole entry): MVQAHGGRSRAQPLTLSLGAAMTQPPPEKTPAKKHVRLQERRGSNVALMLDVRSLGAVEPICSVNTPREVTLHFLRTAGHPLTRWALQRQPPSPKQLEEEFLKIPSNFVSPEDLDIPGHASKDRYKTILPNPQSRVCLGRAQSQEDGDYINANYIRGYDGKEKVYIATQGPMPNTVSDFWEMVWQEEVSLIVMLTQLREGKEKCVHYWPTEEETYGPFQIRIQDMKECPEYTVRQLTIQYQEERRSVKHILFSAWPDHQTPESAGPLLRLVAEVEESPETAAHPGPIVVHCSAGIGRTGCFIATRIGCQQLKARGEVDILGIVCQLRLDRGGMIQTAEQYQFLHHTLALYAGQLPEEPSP

[11] = molecular target: T6, Tyrosine-protein phosphatase non-receptor type 22 (Homo sapiens, UniProt Q9Y2R2); type: functional
T6 sequence (Q9Y2R2 whole entry): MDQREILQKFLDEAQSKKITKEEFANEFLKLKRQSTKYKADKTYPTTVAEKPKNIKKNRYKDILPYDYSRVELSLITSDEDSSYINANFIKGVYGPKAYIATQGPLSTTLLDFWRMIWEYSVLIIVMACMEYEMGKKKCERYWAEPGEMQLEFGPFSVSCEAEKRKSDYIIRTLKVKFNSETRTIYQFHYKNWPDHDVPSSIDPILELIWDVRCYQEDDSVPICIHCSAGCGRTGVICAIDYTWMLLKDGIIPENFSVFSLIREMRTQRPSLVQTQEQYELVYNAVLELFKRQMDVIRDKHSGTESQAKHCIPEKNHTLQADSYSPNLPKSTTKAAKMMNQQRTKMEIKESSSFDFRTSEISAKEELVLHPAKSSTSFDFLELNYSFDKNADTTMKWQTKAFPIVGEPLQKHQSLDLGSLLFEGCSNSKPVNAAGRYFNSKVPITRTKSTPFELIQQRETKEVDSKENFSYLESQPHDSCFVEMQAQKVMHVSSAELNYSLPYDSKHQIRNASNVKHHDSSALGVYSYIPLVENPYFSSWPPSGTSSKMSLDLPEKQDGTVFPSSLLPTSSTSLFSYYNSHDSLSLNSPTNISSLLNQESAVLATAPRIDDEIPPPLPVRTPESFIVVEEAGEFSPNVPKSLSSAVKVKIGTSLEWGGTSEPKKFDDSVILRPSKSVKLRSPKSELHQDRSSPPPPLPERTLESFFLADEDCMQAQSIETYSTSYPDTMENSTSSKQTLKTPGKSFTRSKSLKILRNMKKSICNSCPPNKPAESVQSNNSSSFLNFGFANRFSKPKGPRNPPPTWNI

[12] = molecular target: T6, Tyrosine-protein phosphatase non-receptor type 22; type: functional; remark: listed apart in the source

Sequence of Intestinal-type alkaline phosphatase (Mus musculus, UniProt P24822) (P24822 whole entry): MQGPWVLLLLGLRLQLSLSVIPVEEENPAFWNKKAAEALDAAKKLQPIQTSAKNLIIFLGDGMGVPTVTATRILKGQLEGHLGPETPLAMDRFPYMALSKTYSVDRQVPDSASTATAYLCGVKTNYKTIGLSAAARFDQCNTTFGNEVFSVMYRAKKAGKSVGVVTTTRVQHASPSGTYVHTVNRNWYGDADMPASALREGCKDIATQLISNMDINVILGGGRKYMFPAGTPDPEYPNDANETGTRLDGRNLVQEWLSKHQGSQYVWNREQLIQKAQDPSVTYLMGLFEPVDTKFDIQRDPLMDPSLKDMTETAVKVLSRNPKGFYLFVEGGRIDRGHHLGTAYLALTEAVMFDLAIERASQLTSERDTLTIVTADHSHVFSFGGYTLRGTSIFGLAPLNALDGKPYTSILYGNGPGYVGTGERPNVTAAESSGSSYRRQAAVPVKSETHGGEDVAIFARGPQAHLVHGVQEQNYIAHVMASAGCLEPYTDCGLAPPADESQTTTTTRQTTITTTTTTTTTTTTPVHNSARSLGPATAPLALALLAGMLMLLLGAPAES

O=c1oc(-c2ccc(O)c(O)c2)cc2cc(O)cc(O)c12 [THUNBERGINOL B]
IC50 [1]: 7.57 µM (active) | IC50 [2]: 0.565 µM (active) | CC50 [3]: 100 µM (active) | IC50 [4]: 19.5 µM (active) | IC50 [5]: 2.17 µM (active) | IC50 [6]: 20.4 µM (active) | IC50 [7]: > 67.5 µM (inactive) | IC50 (HEK293): > 67.5 µM (inactive)

C=CCN1C(=O)NC(=O)/C(=C/c2ccoc2)C1=O
AC50 [8]: 22.2 µM (active)

c1ccc2c(CN3CCCCC3)csc2c1
EC50 [9]: 14.6 µM (active) | IC50 [10]: > 79.4 µM (inactive) | IC50 [11]: > 79.4 µM (inactive) | IC50 [12]: > 79.4 µM (inactive)
